Converted amounts (≈) assume the structure as drawn. Where two headings read alike, the source gives them in different places.
Legend:
[1] = system: Methanobrevibacter smithii (DSMZ 11975); test: MIC (Minimum Inhibiting Concentration) on bacterial strain; type: cell-based
[2] = target: T1, human PXR (Homo sapiens, UniProt O75469); test: PXR nuclear receptor luciferase reporter assay (Indigo Biosciences), agonist mode; type: cell-based; conditions: for EC50: 3 independent experiments, read-out: Agonism of PXR transcriptional activity expressed as EC50 Molar (95% CI range)
T1 construct: host or cells: proprietary human cells engineered to express the hybrid receptor
T1 sequence (O75469 146-433 limits assumed): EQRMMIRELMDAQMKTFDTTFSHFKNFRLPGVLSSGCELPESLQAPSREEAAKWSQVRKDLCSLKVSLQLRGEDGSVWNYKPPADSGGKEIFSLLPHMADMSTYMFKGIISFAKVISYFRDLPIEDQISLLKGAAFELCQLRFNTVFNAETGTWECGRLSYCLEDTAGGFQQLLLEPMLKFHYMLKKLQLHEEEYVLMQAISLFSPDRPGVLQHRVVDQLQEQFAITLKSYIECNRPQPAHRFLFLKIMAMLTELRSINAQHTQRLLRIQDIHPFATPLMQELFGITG
Source text: This assay product from Indigo Biosciences (Pennsylvania, USA) utilizes cells that express a hybrid form of human PXR. The N-terminal sequence encoding the PXR DNA binding domain (DBD) was substituted with that of the yeast GAL4-DBD. The native PXR ligand binding domain (LBD) and other C-terminal domains remain intact and functional. Ligand interaction activates the receptor, causing it to bind to the GAL4 DNA binding sequence, which is functionally linked to a resident luciferase reporter gene. Thus, quantifying changes in luciferase activity in the treated reporter cells provides a sensitive surrogate measure of the changes in PXR activity. The principle application of this reporter assay system is in the screening of test samples to quantify any functional activity, either agonist or antagonist, that they may exert against human PXR. […] The p value was calculated using Prism parametric, paired t test analysis.

[3] = system: NFκB transcriptional activity; test: NFκB luciferase reporter cell line stimulated with PMA, TNFα or LPS; type: cell-based; conditions: for IC50: 24 hr incubation
Procedure: To establish that NFκB inhibition occurs upon rifamycin-induced PXR activation, a reporter cell line expressing full length NFκB and harboring luciferase reporter gene functionally linked to upstream NFκB genetic response elements, was stimulated with either PMA, TNFα or LPS to induce NFκB. Rifamycin or rifaximin were dose-titrated onto these stimulated cells. After 24 hr incubation, luminescence correlating to NFκB transcriptional activity was quantified.

[4] = Safety and tolerability in healthy volunteers; type: in vivo, human
[5] = system: IL1β-induced synthesis of IL-8 in colonic epithelial cells; test: IL1β-induced IL-8 synthesis in colonic epithelial cells; type: cell-based
Source text: PMA or diacyl glycerol-activated PKC is important for T cell receptor or IgE-induced NFκB that occurs in immune cells, like T cells and mast cells, respectively. On the other hand, TNF or LPS-induced NFκB that occurs in colonic epithelial cells requires other signaling factors (TRAFs, TNFR-associated factors). Most importantly, for its relevance in IBS or IBD, NFκB biologic function was confirmed in colonic epithelial cells. […] These cell-dependent requirements for inducing inflammation imply that by acting on various target cells, rifamycin's anti-inflammatory potential is broad because dysregulated immune and epithelial cell interactions contribute to the pathogenesis of several GI disorders.

[6] = system: NFkB transcription factor; test: NFkB reporter assay (Indigo Biosciences), antagonist mode, TNFα stimulated human kidney epithelial cells; type: cell-based; conditions: for IC50: Homo sapiens, Epithelial cell, 30 ng/mL TNFα, 24 hours, 2 independent experiments, read-out: Antagonism of NFkB activity IC50 Molar (95% CI range)
Procedure: The NFkB nuclear receptor assay system from Indigo Biosciences utilizes human kidney epithelial cells transiently transfected with an NF-kB reporter. The NFkB biologic activity measured as transcriptional activity from these reporter cells demands the same orchestration of all intracellular molecular interactions and events that can be expected to occur in vivo. Cells were treated under antagonist mode in the presence of 30 ng/mL TNFα to stimulate the NFkB inflammatory cascade. […] After 24 hours, luminescence which is proportional to NFkB transcriptional activity was quantitated. […] The p value was calculated using Prism parametric, paired t test analysis.

[7] = PMA stimulus, read-out: IC50, antagonism of PMA-induced NFκB activity
[8] = up to the highest concentration tested

In the case of Cc1ncc([N+](=O)[O-])n1CCO [Metronidazole], the MIC ([1]; DSMZ11975, read-out: MIC) is reported as 25 µg/mL (≈ 146 µM).
NC[C@@H]1O[C@H](O[C@H]2[C@@H](O)[C@H](O[C@@H]3[C@@H](O)[C@H](N)C[C@H](N)[C@H]3O[C@H]3O[C@H](CN)[C@@H](O)[C@H](O)[C@H]3N)O[C@@H]2CO)[C@H](N)[C@@H](O)[C@@H]1O [Neomycin] showed an MIC [1] of over 100 µg/mL.
Compound CO[C@H]1/C=C/O[C@@]2(C)Oc3c(C)c([O-])c4c(O)c(cc(O)c4c3C2=O)NC(=O)/C(C)=C\C=C\[C@H](C)[C@H](O)[C@@H](C)[C@@H](O)[C@@H](C)[C@H](OC(C)=O)[C@@H]1C.[Na+] [Rifamycin SV sodium] has an MIC [1] of under 1 µg/mL.
In the case of CO[C@H]1/C=C/O[C@@]2(C)Oc3c(C)c(O)c4c(O)c(cc(O)c4c3C2=O)NC(=O)/C(C)=C\C=C\[C@H](C)[C@H](O)[C@@H](C)[C@@H](O)[C@@H](C)[C@H](OC(C)=O)[C@@H]1C [Rifamycin SV, (2S,12Z,14E,16S,17S,18R,19R,20R,21S,22R,23S,24E)-21-(acetyloxy)-6,9,17,19-tetrahydroxy-23-methoxy-2,4,12,16,18,20,22-heptamethyl-1,11-dioxo-1,2-dihydro-2,7-(epoxypentadeca[1,11,13]trienimino)naphtho[2,1-b]furan-5-ol], the EC50 [2] is reported as 6.08 nM, the “times more potent than rifaximin in stimulating PXR transcriptional activity” value ([2]; from rifaximin at 30 μM vs rifamycin SV at 0.3 μM) is reported as 250 times and the “times more potent than rifampicin (PXR)” value ([2]; vs rifampicin, positive control) is reported as 180 times. For the same compound, the “times more potent than rifaximin at stimulating PXR transcriptional activity” value ([2]; vs rifaximin) was 200-440 times, the IC50 ([3]; LPS stimulus, read-out: IC50, antagonism of LPS-induced NFκB activity) was 3490 nM and the “times higher potency than rifaximin, PMA-induced NFκB activity” value ([3]; PMA stimulus) was 6 times. For the same compound, the IC50 [3, 7] was 15.6 nM, the IC50 ([3]; TNFα stimulus, read-out: IC50, antagonism of TNFα-induced NFκB activity) was 14800 nM and the “change in vital signs, BW, ECGs or laboratory parameters” value ([4]; after treatment, 600 mg t.i.d., 14 days) was “No significant change”. The “change in liver or kidney functions” value ([4]; during the multiple doses treatment) was “No significant change”, the “discontinuation due to AEs” value ([4]; tablets of Example 1, 600 mg t.i.d., 14 days) was “no subject discontinued the study due to AEs” and the “severe AEs” value ([4]; tablets of Example 1, 600 mg t.i.d., 14 days, 18 healthy subjects) was “No severe AEs were reported”. The “IL1β-induced synthesis of IL-8” value [5] was “significantly inhibited”, the IC50 [6] was 23 nM and the “times more potent than rifaximin at inhibiting NFkB transcriptional activity” value ([6]; vs rifaximin) was 4000 times.
In the case of CO[C@H]1/C=C/O[C@@]2(C)Oc3c(C)c(O)c4c(O)c(c5c(nc6cc(C)ccn65)c4c3C2=O)NC(=O)/C(C)=C\C=C\[C@H](C)[C@H](O)[C@@H](C)[C@@H](O)[C@@H](C)[C@H](OC(C)=O)[C@@H]1C [Rifaximin], the EC50 [2] is reported as 1800 nM, the “times less potent than rifamycin SV at 0.3 μM (PXR)” value ([2]; rifaximin at 30 μM) is reported as 2.5 times and the IC50 [3, 7] is reported as 93.9 nM. The “inhibition of LPS-induced NFκB activity” value [3, 8] was “did not inhibit”, the “inhibition of TNFα-induced NFκB activity” value [3, 8] was “did not inhibit” and the MIC ([1]; DSMZ11975, read-out: MIC) was 25 µg/mL (≈ 31.8 µM). It also gave an IC50 [6] of 83000 nM.
